Reference: patent publication US6013648A, “CB2 Receptor agonist compounds” (Sanofi, priority 1995, dated 2000)

Experiments:
human B cells = experiment: DNA synthesis rate (thymidine absorption) of human B cells co-stimulated with anti-Ig antibodies; assay type: cell-based; conditions: for increase in the thymidine absorption (DNA synthesis rate): nanomolar concentrations, human B cells co-stimulated with anti-Ig antibodies
Source text: It has been shown that, at nanomolar concentrations, compounds according to the invention, such as 3-(morpholin-4-ylmethyl)-5-methyl-6-(naphth-1-ylcarbonyl)-2,3-dihydropyrrolo[1,2,3-de]-1,4-benzoxazine methanesulfonate and 1-(2-(morpholin-4-yl)ethyl)-2-methyl-3-(naphth-1-ylcarbonyl)-7-methoxyindole, are capable of substantially increasing the DNA synthesis rate of human B cells co-stimulated with anti-Ig antibodies (increase of about 40% in the thymidine absorption).

[1] = target: T1, peripheral human cannabinoid receptors (CB2) (Homo sapiens, UniProt P34972); experiment: affinity binding test, membranes from cell lines expressing CB2; conditions: in vitro binding; read-out: affinity for the CB2 receptor
T1 construct: expressed in transfected cells; host or cells: cell line expressing CB2 (probably CHO; the print may tie CHO to CB1 only)
T1 sequence (P34972 whole entry): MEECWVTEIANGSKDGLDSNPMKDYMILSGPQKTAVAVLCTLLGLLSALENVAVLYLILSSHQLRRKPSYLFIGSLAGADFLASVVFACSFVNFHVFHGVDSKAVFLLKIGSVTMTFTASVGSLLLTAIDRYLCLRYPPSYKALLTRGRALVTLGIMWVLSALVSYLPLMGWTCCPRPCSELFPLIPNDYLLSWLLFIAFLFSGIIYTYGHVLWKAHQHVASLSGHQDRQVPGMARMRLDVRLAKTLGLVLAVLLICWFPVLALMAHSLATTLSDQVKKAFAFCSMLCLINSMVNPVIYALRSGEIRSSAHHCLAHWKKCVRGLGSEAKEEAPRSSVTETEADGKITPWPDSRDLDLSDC
Method: (§1) Affinity binding tests were carried out under the experimental conditions described by Devane et al. (Molecular Pharmacology (1988) 34, 605-613) with membranes derived from cell lines in which the CB1 and CB2 receptors were expressed (Munro et al., Nature (1993) 365, 561-565).

[2] = target: T2, human CB2 cannabinoid receptors (Homo sapiens, UniProt P34972); experiment: forskolin-stimulated cAMP production / adenylate cyclase inhibition, CB2; assay type: cell-based
T2 construct: expressed in transfected cells; host or cells: probably CHO cells (the print may tie CHO to CB1 only)
T2 sequence (P34972 whole entry): as above
Method: Furthermore, the compounds according to the invention behave in vitro as specific agonists for the human CB2 cannabinoid receptors relative to the CB1 receptors expressed in CHO cells. In fact, by binding specifically to the CB2 receptors, they reduce forskolin-stimulated cAMP production by inhibiting the adenylate cyclase. The tests were carried out under the experimental conditions described by Matsuda et al. (Nature, 1990, 346, 561-564).
By way of example, the following adenylate cyclase 50% inhibitory concentrations, IC50, were calculated for 1-(2-(morpholin-4-yl)ethyl)-2-methyl-3-(4-bromonaphth-1-ylcarbonyl)-7-methoxyindole: […]

[3] = target: T3, CB1 receptors expressed in CHO cells (Homo sapiens, UniProt P21554); experiment: forskolin-stimulated cAMP production / adenylate cyclase inhibition, CB1; assay type: cell-based
T3 construct: expressed in transfected cells; host or cells: CHO cells
T3 sequence (P21554 whole entry): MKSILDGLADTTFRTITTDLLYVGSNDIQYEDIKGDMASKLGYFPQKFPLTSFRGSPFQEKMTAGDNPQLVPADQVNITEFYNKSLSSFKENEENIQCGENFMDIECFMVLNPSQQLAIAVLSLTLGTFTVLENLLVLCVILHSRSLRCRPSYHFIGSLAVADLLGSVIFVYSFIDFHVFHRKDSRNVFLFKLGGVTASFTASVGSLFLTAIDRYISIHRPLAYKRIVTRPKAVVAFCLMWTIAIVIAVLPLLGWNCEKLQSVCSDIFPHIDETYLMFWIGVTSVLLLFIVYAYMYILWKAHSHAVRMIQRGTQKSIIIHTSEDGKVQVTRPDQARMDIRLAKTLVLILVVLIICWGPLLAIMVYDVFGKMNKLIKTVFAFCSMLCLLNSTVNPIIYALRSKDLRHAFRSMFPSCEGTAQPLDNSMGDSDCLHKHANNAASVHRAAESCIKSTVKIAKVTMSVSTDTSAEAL
Method: The tests were carried out under the experimental conditions described by Matsuda et al. (Nature, 1990, 346, 561-564).

[4] = target: T4, central human receptors (CB1) (Homo sapiens, UniProt P21554); experiment: affinity binding test, membranes from cell lines expressing CB1
T4 construct: expressed in transfected cells; host or cells: Chinese hamster ovary (CHO) cells
T4 sequence (P21554 whole entry): as above
Method: as §1

SMILES: CS(=O)(=O)O.Cc1c(C(=O)c2cccc3ccccc23)c2cccc3c2n1C(CN1CCOCC1)CO3 (single isomer, unassigned) [3-(morpholin-4-ylmethyl)-5-methyl-6-(naphth-1-ylcarbonyl)-2,3-dihydropyrrolo[1,2,3-de]-1,4-benzoxazine methanesulfonate]
- increase in the thymidine absorption (DNA synthesis rate) (human B cells): about 40%

SMILES: COc1cccc2c(C(=O)c3cccc4ccccc34)c(C)n(CCN3CCOCC3)c12 [Compound 6, 1-(2-(morpholin-4-yl)ethyl)-2-methyl-3-(naphth-1-ylcarbonyl)-7-methoxyindole]
- increase in the thymidine absorption (DNA synthesis rate) (human B cells): about 40%

SMILES: COc1cccc2c(C(=O)c3ccc(Br)c4ccccc34)c(C)n(CCN3CCOCC3)c12 [Compound 22, 1-(2-(Morpholin-4-yl)ethyl)-2-methyl-3-(4-bromonaphth-1-ylcarbonyl)-7-methoxyindole]
- Ki [1]: 1.8 nM
- IC50 [2]: 1 nM
- IC50 [3]: 1000 nM
- Ki [4]: > 1000 nM

SMILES: Cc1c(C(=O)NN2CCCCC2)nn(-c2ccc(Cl)cc2Cl)c1-c1ccc(Cl)cc1 [SR 141716A, reference compound]
- blocking effect (human B cells; wide concentration range, with CP 55940 (or Δ^9 -THC or WIN 55212-2) at 10^-9 M): no blocking effect was observed
